Source: PMC6158096 (Molecular microbiology, 2018)
“And” between values parts separate entries of the source, which are not always exact repeats. Equal entries are not always repeated. Where two headings read alike, the source gives them in different places. Ends that are not written are not given here. * marks the point of attachment. FITC = O=C1OC2(c3ccc(O)cc3Oc3cc(O)ccc32)c2ccc(NC(=S)*)cc21; Ahx = NCCCCCC(=O)O

Legend:
ComR = test: Fluorescence polarization: FITC-labeled XrpA-N1 direct binding to ComR; parameters: species or system Streptococcus mutans; details: 10 nM FITC-labeled XrpA-N1, increasing concentrations of sXIP
CcpA = test: Fluorescence polarization: FITC-labeled XrpA-N1 binding to CcpA; parameters: species or system Streptococcus mutans; details: 10 nM probe, increasing purified protein, 10 μM sXIP
SppA (SMU.508) = test: Fluorescence polarization: FITC-labeled XrpA-N1 binding to SppA; parameters: species or system Streptococcus mutans; details: 10 nM probe, increasing purified protein, 10 μM sXIP
[1] = test system: ComR;sXIP (ComS 11-17) (Streptococcus mutans UA159;Streptococcus mutans); test: fluorescence polarization
[2] = test system: ComR;sXIP (ComS 11-17) (Streptococcus mutans UA159;Streptococcus mutans); test: fluorescence polarization; remark: listed apart in the source

## GLDWWSL [sXIP]
ComR
  effect on fluorescent XrpA-N1 affinity for ComR: no effect

## {FITC-Ahx}-MIQNCISILRHFLITLK [FITC-labeled XrpA-N1]
CcpA
  interaction of FITC-labeled XrpA-N1 with CcpA: neither showed any ability to interact
SppA (SMU.508)
  interaction of FITC-labeled XrpA-N1 with SppA: neither showed any ability to interact

## ATGGGACATTTATGTCCTGTCCCCCACAGGACATAAATGTCCCAT [PcomX ECom-box stem-loop probe]
[1]
  Kd: 0.169 µM and 0.165 µM
[2]
  Kd: 0.147 µM
